Data published in paper PMC12457078, “Inhibition of soluble epoxide hydrolase in endotoxin induced pig lung injury” (Frontiers in Pharmacology, 2025).
Read-outs that look alike come from different tables or passages of the source.

Assays:
Recombinant porcine sEH = target: T1, Recombinant porcine sEH (Sus scrofa, UniProt Q6Q2C2); test: fluorescent activity assay (MNPC substrate), sEH inhibition potency; type: biochemical, pig
T1 construct: made in house
T1 sequence (Q6Q2C2 1-555): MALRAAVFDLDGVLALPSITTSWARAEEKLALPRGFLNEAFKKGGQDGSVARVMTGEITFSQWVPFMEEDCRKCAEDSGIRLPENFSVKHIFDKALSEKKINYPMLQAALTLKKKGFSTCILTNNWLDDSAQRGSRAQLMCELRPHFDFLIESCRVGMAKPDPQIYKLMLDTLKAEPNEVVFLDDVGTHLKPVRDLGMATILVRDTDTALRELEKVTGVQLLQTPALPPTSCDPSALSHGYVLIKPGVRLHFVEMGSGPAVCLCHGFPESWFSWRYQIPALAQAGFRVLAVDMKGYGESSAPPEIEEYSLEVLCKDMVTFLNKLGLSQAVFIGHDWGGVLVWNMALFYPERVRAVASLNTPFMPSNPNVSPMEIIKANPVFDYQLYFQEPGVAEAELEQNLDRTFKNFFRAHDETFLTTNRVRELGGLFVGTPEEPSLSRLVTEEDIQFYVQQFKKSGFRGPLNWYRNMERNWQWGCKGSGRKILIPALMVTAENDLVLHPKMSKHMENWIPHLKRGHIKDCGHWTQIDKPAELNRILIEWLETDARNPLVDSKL

[1] = liver microsomal assay (metabolic stability); type: in vitro ADME, pig; conditions: pig liver microsomes, NADPH generating system, 35 min
Experimental: To further characterize the inhibitors with regard to suitability for administration in pigs, a microsomal assay was used to determine metabolic stability ([Ackley et al., 2004]) for a subset of eight inhibitors chosen for their potency and availability. Microsomal preparations from pig liver were purchased from XenoTech (Kansas City, KS, US). Microsomes, buffer and NADPH generating system were combined, and then the inhibitor was added. The reaction was stopped after 35 min with ice cold acetonitrile containing internal standard (12-[[(cyclohexylamino)carbonyl]amino]-dodecanoic acid). The amount left of parent inhibitor was determined with LC-MS/MS.

[2] = 5 min preincubation 37 °C, MNPC 5 µM, read-out: Pig sEH IC50

| IC50 (Recombinant porcine sEH; [2]) [nM] | Liver microsomal stability: Amount remaining after 35 min (% of initial) [1] | Structure (SMILES) | IC50 (Recombinant porcine sEH) [nM] |
| --- | --- | --- | --- |
| 40 |  | O=C(O)CCCCCCCCCCCNC(=O)Nc1ccc(OC(F)(F)F)cc1 [Compound 1663] |  |
| 70 |  | CC(C)C(=O)N1CCC(NC(=O)Nc2ccc(C(F)(F)F)cc2)CC1 [Compound 2389] |  |
| 105 |  | O=C(Nc1cccc2ccccc12)NC1CCCCC1 [Compound 59] |  |
| 19 |  | O=C(Nc1ccc(OC(F)(F)F)cc1)N[C@H]1CC[C@@H](Oc2ccc(C(=O)O)cc2)CC1 [Compound 1686] |  |
|  | 1 ± 0.1 % of initial | O=C(O)CCCCCCCCCCCNC(=O)NC12CC3CC(CC(C3)C1)C2 [Compound 700] |  |
| 5 |  | COC(=O)c1ccc(NC(=O)NC23CC4CC(CC(C4)C2)C3)cc1O [Compound 1671] |  |
| 107 |  | CCC(C)C(=O)N1CCC(NC(=O)Nc2cc(C(F)(F)F)cc(C(F)(F)F)c2)CC1 (centres unmarked) [Compound 2421] |  |
| 48 | 66 ± 1 % of initial | CNc1nc(C)nc(N[C@H]2CCC[C@@H](C(=O)NCc3ccc(C#N)cc3C(F)(F)F)C2)n1 [Compound 2946] |  |
| 60 |  | CCCC(=O)N1CCC(NC(=O)Nc2ccc(C(F)(F)F)cc2)CC1 [Compound 2413] |  |
| 44 |  | O=C(Nc1ccc(C(F)(F)F)cc1)NC1CCN(C(=O)CC(F)(F)F)CC1 [Compound 2714] |  |
|  |  | CC(=O)N1CCC(NC(=O)Nc2ccc(OC(F)(F)F)cc2)CC1 [Compound 1555] | 197 |
| 34 | 78 ± 3 % of initial | O=C(Nc1ccc(OC(F)(F)F)cc1)N[C@H]1CC[C@H](Oc2ccc(C(=O)O)cc2)CC1 [Compound 1728] |  |
| 38 |  | CC(C)C(=O)N1CCC(NC(=O)Nc2ccc(OC(F)(F)F)cc2)CC1 [Compound 2422] |  |

| Structure (SMILES) | IC50 (Recombinant porcine sEH; [2]) [nM] | Liver microsomal stability: Amount remaining after 35 min (% of initial) [1] | IC50 (Recombinant porcine sEH) [nM] |
| --- | --- | --- | --- |
| CCC(C)C(=O)N1CCC(NC(=O)Nc2ccc(OC(F)(F)F)cc2)CC1 (centres unmarked) [Compound 2385] |  | 55 ± 3 % of initial | 19 |
